Like-named read-outs stand apart in the source and are kept apart here. Starred links: 1 amine or outer side, 2 acyl side, 3 side chain; linkers in the order of their positions; H or OH if unused. Positions of bridges follow the written chain, without caps; N, C: chain ends. Non-standard residues stand in square brackets, D forms with d. Residues, ends and D or L forms follow the SMILES beside them. Chains are numbered I, II in the order given. No end group written: not given here. *: point of attachment. εLys = N[C@@H](CCCCN[*:1])C(=O)[*:2]; Propyl(3-NH2) = NCCC*; βAla = NCCC(=O)O
How the values were obtained:
[1] = tested on: Escherichia coli infected muscle; set-up: species or system New Zealand White (NZW) rabbits; details: rabbit, in vivo
Experimental: New Zealand White (NZW) rabbits of both sexes and weighing 2–3 kg were innoculated intramuscularly in the left calf with a potent strain of Escherichia coli. After 24 hours, the animals were sedated by intramuscular injection of ketamine and xylazine and then injected with Tc-99m labeled infection targeting agent (2–10mCi, <150 μg). The animals were then positioned supine in the field of view of a gamma cammera (LEAP collimator/photopeaked for Tc-99m) to be imaged. The animals were imaged over the first hour post-injection, and then at approximately 1 hour intervals for the next 3 hours. Animals were allowed to recover between image acquisiitons and re-anesthetized as needed.
Upon completion of the final imaging, each animal was sacrificed with an intravenous overdose of sodium pentobarbital, then dissected to obtain samples of blood and of infected and control tissue. Tissue samples were weighed and counted using a gamma radition counter; a standard amount the injected dose was counted in parallel with each sample as a control.

[2] = tested on: fresh human platelet-rich plasma; test: Platelet aggregation inhibition assay (ADP-induced); type: cell-based
Experimental: Platelet aggregation studies were performed essentially as described by Zucker (1989, Methods in Enzymol. 169: 117–133). Briefly, platelet aggregation was assayed with or without putative platelet aggregation inhibitory compounds using fresh human platelet-rich plasma, comprising 300,000 platelets per microlitre. Platelet aggregation was induced by the addition of a solution of adenosine diphosphate to a final concentration of 10 to 15 micromolar, and the extent of platelet aggregation monitored using a Bio/Data aggregometer (Bio/Data Corp., Horsham, Pa.). The concentrations of platelet aggregation inhibitory compounds used were varied from 0.1 to 500 μg/mL. The concentration of inhibitor that reduced the extent of platelet aggregation by 50% (defined as the IC50) was determined from plots of inhibitor concentration versus extent of platelet aggregation. An inhibition curve for peptide RGDS was determined for each batch of platelets tested as a positive control.

[3] = tested on: CA20948 rat pancreatic tumor; set-up: species or system Lewis rats; details: in vivo, iv
Experimental: In vivo imaging of somatostatin receptors expressed by rat tumor cells was performed essentially as described by Bakker et al. (1991, Life Sciences 49: 1593–1601).
CA20948 rat pancreatic tumor cells, thawed from frozen harvested tumor brei, were implanted intramuscularly into the right hind thigh of 6 week old Lewis rats in a suspension of 0.05 to 0.1 mL/animal. The tumors were allowed to grow to approximately 0.5 to 2 g, harvested, and tumor brei was used to implant a second, naive set of Lewis rats. Passaging in this fashion was repeated to generate successive generations of tumor-bearing animals. The tumor-bearing animals used for the in vivo studies were usually from the third to fifth passage and carried 0.2 to 2 g tumors.
For studies of the specificity of radiotracer localization in the tumors, selected animals were given an subcutaneous SSTR-blocking dose (4 mg/kg) of octreotide 30 minutes prior to injection of the radiotracer.
Third- to fifth-passage CA20948 tumor-bearing Lewis rats were restrained and injected intravenously via the dorsal tail vein with a dose of 0.15–0.20 mCi of a ^99mTc-labeled SSTR targeting imaging agent of the invention (corresponding to 3 to 8 μg peptide in 0.2 to 0.4 mL).
At selected times, the animals were sacrificed by cervical dislocation and selected necropsy was performed. Harvested tissue samples were weighed and counted along with an aliquot of the injected dose in a gamma well-counter.

GGCSIPPEVKFNKPFVYLI.amide (GGCSIPPEVKFNKPFVYLI-NH2) [Peptide P472]
Blood (% ID/g) [1]: 0.0076 % ID/g | Control Muscle (% ID/g) [1]: 0.0009 % ID/g | Infected Muscle (% ID/g) [1]: 0.0079 % ID/g | Ratio of Infected/Blood [1]: 1.0 | Ratio of Infected/Control [1]: 8.8

NCCCSC[C@@H]1NC(=O)[C@@H](Cc2ccc(O)cc2)NC(=O)CSC[C@@H](C(=O)NCC(=O)NCCCC[C@H](NC(=O)CNC(=O)[C@@H]2CSCC(=O)N[C@H](Cc3ccc(O)cc3)C(=O)N[C@@H](CSCCCN)C(=O)NCC(=O)N[C@@H](CC(=O)O)C(=O)N2)C(=O)NCC(=O)NCCCC[C@H](NC(=O)CNC(=O)[C@H](CCCCNC(=O)CNC(=O)[C@@H]2CSCC(=O)N[C@H](Cc3ccc(O)cc3)C(=O)N[C@@H](CSCCCN)C(=O)NCC(=O)N[C@@H](CC(=O)O)C(=O)N2)NC(=O)CNC(=O)[C@@H]2CSCC(=O)N[C@H](Cc3ccc(O)cc3)C(=O)N[C@@H](CSCCCN)C(=O)NCC(=O)N[C@@H](CC(=O)O)C(=O)N2)C(=O)NCCCC[C@H](N)C(=O)NCC(=O)N[C@@H](CS)C(=O)NCC(N)=O)NC(=O)[C@H](CC(=O)O)NC(=O)CNC1=O [Peptide P681, {(CH2CO.YDApc.GDCG)2KG}2K(ε-K)GCG.amide] (I: {CH2CO}-[dY]C(Propyl(3-NH2))GDCGKGK[εLys]GCG-NH2 / II: {CH2CO}-[dY]C(Propyl(3-NH2))GDCGKG / III: {CH2CO}-[dY]C(Propyl(3-NH2))GDCG / IV: {CH2CO}-[dY]C(Propyl(3-NH2))GDCG; amide I:7-IV:C, I:9-II:C, II:7-III:C (inferred); thioether I:N-I:5, II:N-II:5, III:N-III:5, IV:N-IV:5 (inferred))
IC50 [2]: 110 nM

cyclo(N-methyl)FYWDKV.Hcy.(CH2CO.(β-Dap)KCK.amide) [Peptide P829]
Tumor/Blood [3]: 13

cyclo(N-methyl)FYWDKV.Hcy.(CH2CO.(δ-Dap)GCK.amide) [Peptide P772]
Tumor/Blood [3]: 7.2

NCCCC[C@H](NC(=O)[C@@H]1CSCC(=O)N[C@H](Cc2ccc(O)cc2)C(=O)N[C@@H](CSCCCN)C(=O)NCC(=O)N[C@@H](CC(=O)O)C(=O)N1)C(=O)NCC(=O)NCC(=O)NCCCC[C@H](NC(=O)CNC(=O)CNC(=O)[C@H](CCCCN)NC(=O)[C@@H]1CSCC(=O)N[C@H](Cc2ccc(O)cc2)C(=O)N[C@@H](CSCCCN)C(=O)NCC(=O)N[C@@H](CC(=O)O)C(=O)N1)C(=O)NCCCC[C@H](N)C(=O)NCC(=O)N[C@@H](CS)C(=O)NCCC(N)=O [Peptide P687, (CH2CO.YD.Apc.GDCKGG)2K(ε-K)GC.β-Ala.amide] (I: {CH2CO}-[dY]C(Propyl(3-NH2))GDCKGGK[εLys]GC[βAla]-NH2 / II: {CH2CO}-[dY]C(Propyl(3-NH2))GDCKGG; amide I:9-II:C (inferred); thioether I:N-I:5, II:N-II:5 (inferred))
IC50 [2]: 79 nM

cyclo(N-methyl)FYWDKV.Hcy.(CH2CO.(δ-Orn)GCK.amide) [Peptide P773]
% ID/g Blood ([3]; 1.5 h): 0.13 % ID/g | % ID/g Tumor ([3]; 1.5 h): 1.9 % ID/g | Tumor/Blood ([3]; 1.5 h): 15

cyclo(N-methyl)FYWDKV.Hcy.(CH2CO.(ε-K)GCKK.amide) [Peptide P723]
Tumor/Blood [3]: 5.4

GGCGLF [Peptide P477]
Blood (% ID/g) [1]: 0.0140 % ID/g | Control Muscle (% ID/g) [1]: 0.0012 % ID/g | Infected Muscle (% ID/g) [1]: 0.0100 % ID/g | Ratio of Infected/Blood [1]: 0.72 | Ratio of Infected/Control [1]: 8.4

cyclo(N-methyl)FYWDKV.Hcy.(CH2CO.(β-Dap)KCR.amide) [Peptide P832]
Tumor/Blood [3]: 13
